Reference: article PMC11873037 (Nature Communications, 2025)
Blank lines part the entries; values can stand above or below the molecule they belong to.

Key:
[1] = biological target: T1, ChREBPα (Rattus norvegicus, UniProt Q8VIP2); test: immunostaining, nuclear localization of ChREBPα in INS-1 cells; assay type: cell-based
T1 sequence (Q8VIP2 1-865): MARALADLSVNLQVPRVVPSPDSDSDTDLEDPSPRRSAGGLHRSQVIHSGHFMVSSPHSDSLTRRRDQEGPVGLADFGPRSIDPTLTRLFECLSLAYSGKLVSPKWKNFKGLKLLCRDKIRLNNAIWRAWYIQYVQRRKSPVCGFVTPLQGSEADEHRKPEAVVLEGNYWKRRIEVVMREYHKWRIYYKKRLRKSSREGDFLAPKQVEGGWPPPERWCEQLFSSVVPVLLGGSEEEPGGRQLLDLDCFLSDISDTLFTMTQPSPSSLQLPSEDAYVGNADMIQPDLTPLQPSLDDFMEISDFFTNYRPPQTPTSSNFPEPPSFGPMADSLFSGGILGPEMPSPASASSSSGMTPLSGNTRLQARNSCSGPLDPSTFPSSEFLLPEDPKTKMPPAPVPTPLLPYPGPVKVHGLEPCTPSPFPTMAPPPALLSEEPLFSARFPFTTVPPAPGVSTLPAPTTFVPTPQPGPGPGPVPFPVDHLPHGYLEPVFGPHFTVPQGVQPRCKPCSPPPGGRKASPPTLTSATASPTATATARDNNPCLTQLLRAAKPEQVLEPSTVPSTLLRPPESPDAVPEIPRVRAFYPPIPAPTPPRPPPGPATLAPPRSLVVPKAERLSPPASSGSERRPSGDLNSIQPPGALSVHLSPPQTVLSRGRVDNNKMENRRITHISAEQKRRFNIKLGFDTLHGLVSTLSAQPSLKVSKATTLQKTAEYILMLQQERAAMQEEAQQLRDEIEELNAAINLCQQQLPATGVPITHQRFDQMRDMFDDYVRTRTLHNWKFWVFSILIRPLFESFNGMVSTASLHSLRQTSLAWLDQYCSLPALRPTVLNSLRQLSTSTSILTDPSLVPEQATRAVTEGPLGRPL

[2] = biological target: T2, ChREBPα/14-3-3β (Homo sapiens, UniProt P31946+Q9NP71); test: FA compound titration, stabilization of FITC-ChREBPα peptide/14-3-3β; assay type: binding; details: for EC50: EC50, FITC-ChREBPα peptide 10 nM, 14-3-3β 150 nM, mean ± SD, n = 2; for stabilization of the ChREBPα/14-3-3 PPI, in words: FA-based compound titrations
T2 sequence (P31946 1-246): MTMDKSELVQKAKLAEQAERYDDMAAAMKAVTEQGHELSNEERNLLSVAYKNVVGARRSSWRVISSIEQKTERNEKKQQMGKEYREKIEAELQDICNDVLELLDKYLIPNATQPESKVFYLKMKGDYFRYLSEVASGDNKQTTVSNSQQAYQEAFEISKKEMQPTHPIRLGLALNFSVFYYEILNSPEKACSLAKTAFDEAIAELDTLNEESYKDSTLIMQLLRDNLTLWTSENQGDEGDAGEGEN
T2 sequence (Q9NP71 117-142 limits assumed): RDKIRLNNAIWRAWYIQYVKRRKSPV

[3] = tested on: INS-1 cells; test: cytotoxicity in low glucose; assay type: cell-based, rat
[4] = tested on: INS-1 cells; test: cell death in glucolipotoxic conditions; assay type: cell-based, rat; details: for cell death in glucolipotoxic conditions, dose response: 5 and 10 μM, 20 mM glucose+500 µM palmitate, 48 h
[5] = tested on: BRAF, CRAF, p65, USP8, ERα, Pin1, ExoS peptides/14-3-3β; test: FA selectivity studies, statement over all other client peptides; assay type: binding; details: up to 100 µM
[6] = tested on: ChREBPα/all seven 14-3-3 isoforms; test: FA protein titrations, statement over all seven 14-3-3 isoforms; assay type: binding; details: 100 µM 43
[7] = tested on: TAZ, ExoS, ERα, CRAF, ChREBP peptides/14-3-3 isoforms (γ, ζ, σ); assay type: binding; details: 100 µM 43
[8] = tested on: INS-1 cells; test: kinetics of cell proliferation, total cell numbers; assay type: cell-based, rat; details: 10 μM 43
[9] = tested on: human islets, β-cells; test: SPARKL assay, β-cell death in glucolipotoxicity; assay type: cell-based; details: 10 µM; 20 mM glucose+500 μM palmitate
[10] = tested on: primary human islets; test: glucose-stimulated insulin secretion; assay type: cell-based; details: pre-treated 24 h, high glucose
[11] = tested on: primary human islets; test: insulin secretion stimulation index in response to KCl; assay type: cell-based; details: 30 mM KCl
[12] = tested on: primary human islets; test: total insulin content; assay type: cell-based
[13] = tested on: dispersed human islet cells; test: β-cell death after adenoviral ChREBPβ overexpression or shRNA; assay type: cell-based; details: 10 μM 43
[14] = tested on: ChREBPα/14-3-3; test: proximity ligation assay ChREBPα and pan 14-3-3; assay type: cell-based, rat; details: high (20 mM) glucose
[15] = tested on: NFATC1/14-3-3; test: proximity ligation assay NFATC1 and pan 14-3-3; assay type: cell-based, rat; details: 10 μM 43; high (20 mM) glucose
[16] = biological target: T3, ChREBP (Rattus norvegicus, UniProt Q8VIP2); test: CRISPR/Cas9 engineered INS-1 cells; assay type: cell-based; details: high glucose and glucolipotoxic conditions
T3 sequence (Q8VIP2 1-865): T1 sequence (Q8VIP2 1-865)

[17] = tested on: ChREBPβ; test: qPCR ChREBPβ mRNA in human islets; assay type: cell-based; details: 10 µM 43, 24 h; high glucose or glucolipotoxicity
[18] = tested on: INS; test: qPCR INS mRNA in human islets; assay type: cell-based; details: 10 µM 43, 24 h
[19] = tested on: PDX1; test: qPCR PDX1 mRNA in human islets; assay type: cell-based; details: 10 µM 43, 24 h
[20] = tested on: ALDH1A3; test: qPCR ALDH1A3 mRNA in human islets; assay type: cell-based
[21] = tested on: β-cell maturity markers or glucose sensing and processing genes; test: qPCR other β-cell maturity markers or glucose sensing and processing genes; assay type: cell-based, human; details: 10 µM 43, 24 h
[22] = tested on: ChREBPβ; test: immunostaining c-term ChREBP; assay type: cell-based, human; details: 48 h
[23] = tested on: PDX1; test: immunostaining PDX1 protein in dispersed islets; assay type: cell-based, human; details: 48 h
[24] = tested on: human TXNIP promoter; test: luciferase reporter driven by the human TXNIP promoter in INS-1 cells; assay type: cell-based, rat; details: 10 µM 43, 24 h
[25] = tested on: INS-1 cells; test: calcium imaging; assay type: cell-based, rat
[26] = tested on: INS-1 cells; test: ATP/ADP measurements; assay type: cell-based, rat; details: 10 μM 43; high (20 mM) glucose
[27] = biological target: T2, ChREBPα/14-3-3β; details: fit of 2D titration with thermodynamic equilibrium model; compound 0–500 µM
[28] = biological target: T2, ChREBPα/14-3-3β; test: biochemical

EC50 [2]: 7.6 ± 0.5 µM
stabilization of the ChREBPα/14-3-3 PPI, in words [2]: increased the stabilization efficiency
SMILES: O=C(COc1ccccc1P(=O)(O)O)NCCc1ccc(OCc2ccccn2)cc1 [compound 9]

stabilization of the ChREBPα/14-3-3 PPI, in words [2]: increased the stabilization efficiency
SMILES: O=C(COc1ccccc1P(=O)(O)O)NCCc1ccc(OCc2cccnc2)cc1 [compound 10]

stabilization of the ChREBPα/14-3-3 PPI, in words [2]: increased the stabilization efficiency
SMILES: O=C(COc1ccccc1P(=O)(O)O)NCCc1ccc(OCc2ccncc2)cc1 [compound 11]

EC50 [2]: 17.4 ± 3.2 µM
SMILES: O=C(COc1ccc(OP(=O)(O)O)cc1)NCCc1ccccc1 [compound 19]

Continued, molecule first:

SMILES: NC(=O)c1ncn([C@@H]2O[C@H](CO)[C@@H](O)[C@H]2O)c1N [AICAR, reference compound]
nuclear translocation of ChREBPα ([1]; 1 mM AICAR): translocation of ChREBPα is not blocked

SMILES: O=C(NCCc1ccccc1)C(Oc1ccccc1P(=O)(O)O)c1ccccc1 (stereo not drawn) [compound 12]
Active in biochemical assays [2]: not active in the biochemical assay
Cytotoxic in low [glucose] [3]: neither generally cytotoxic
Rescue from glucolipotoxicity [4]: nor rescued the cells from glucolipotoxicity

SMILES: O=C(COc1ccccc1B(O)O)NCCc1ccccc1 [compound 23]
stabilization of the ChREBPα/14-3-3 PPI, in words [2]: inactive

SMILES: NS(=O)(=O)c1ccccc1OCC(=O)NCCc1ccccc1 [compound 24]
stabilization of the ChREBPα/14-3-3 PPI, in words [2]: inactive

SMILES: O=C(COc1ccccc1P(=O)(O)O)NCC(F)(F)c1cccc(F)c1 [compound 43]
Active in biochemical assays [2]: active in biochemical assays
effect on other 14-3-3 client peptides (selectivity) [5]: without affecting any other client peptide
PPI stabilization with 14-3-3 isoforms [6]: PPI stabilization among all isoforms
ChREBPα stabilization selectivity among 14-3-3 isoforms [7]: preserved
Cytotoxic in low [glucose] [3]: no cytotoxicity
Rescue from glucolipotoxicity [4]: protected the β-cells from glucolipotoxicity
glucolipotoxic cell death in INS-1 cells ([4]; 10 µM 43, kinetics over 72 h): prevented
cell death in glucolipotoxic conditions, dose response [4]: significant attenuation of cell death
glucose-stimulated proliferation [8]: prevented glucose-stimulated proliferation
β-cell death in glucolipotoxic conditions, in words [9]: remarkable decrease in β-cell death
GSIS stimulation index, in words [10]: improved glucose-stimulated insulin secretion (GSIS) stimulation index (SI)
SI in response to KCl [11]: no effect
insulin content [12]: no effect
protection from apoptosis due to overexpression of ChREBPβ [13]: unable to protect human islet cells from apoptosis
interaction between 14-3-3 and ChREBPα (PLA) [14]: remained unchanged
14-3-3 dissociation from NFATC1 (PLA) [15]: glucose promoted 14-3-3 dissociation from NFATC1
nuclear translocation of ChREBPα ([1]; glucose + palmitate): preventing ChREBPα’s nuclear translocation
nuclear translocation of ChREBPα ([1]; high glucose): blocked the transient translocation of ChREBPα
build up of nuclear ChREBPβ, in words [16]: prevents the built up of nuclear ChREBPβ
upregulation of ChREBPβ at mRNA level [17]: prevented upregulation of ChREBPβ
INS mRNA downregulation (de-differentiation) in glucolipotoxicity [18]: this de-differentiation was prevented
PDX1 mRNA downregulation (de-differentiation) in glucolipotoxicity [19]: this de-differentiation was prevented
ALDH1A3 mRNA ([20]; high glucose or glucolipotoxicity): unaffected
ALDH1A3 mRNA ([20]; low glucose): significantly decreased
other β-cell maturity markers or glucose sensing and processing genes [21]: unchanged
upregulation of ChREBPβ at protein level [22]: prevented upregulation of ChREBPβ
PDX1 protein levels in glucolipotoxicity [23]: rescued
glucose response of the TXNIP gene [24]: prevents the glucose response of the TXNIP gene
calcium upregulation in response to glucose [25]: no effect
ATP/ADP ratio [26]: enhanced mitochondrial activity
cooperativity factor (α) [27]: 72
Kd [28]: 162 µM

SMILES: O=C(COc1ccccc1P(=O)(O)O)NCC(F)(F)c1ccc(F)c(F)c1 [compound 53]
Active in biochemical assays [2]: active in biochemical assays
effect on other 14-3-3 client peptides (selectivity) [5]: without affecting any other client peptide
Cytotoxic in low [glucose] [3]: no cytotoxicity
Rescue from glucolipotoxicity [4]: protected the β-cells from glucolipotoxicity
cell death in glucolipotoxic conditions, dose response [4]: significant attenuation of cell death
β-cell death in glucolipotoxic conditions, in words [9]: remarkable decrease in β-cell death
cooperativity factor (α) [27]: 126
Kd [28]: 110 µM
